# Measured values reported in patent US12116343B2, “Inhibitors of APOL1 and methods of using same” (Vertex Pharmaceuticals Incorporated, priority 2020, dated 2024).
# Molecular target: T1, APOL1 G1 Protein (Homo sapiens, UniProt O14791, I384M/S342G)
# T1 sequence (O14791 28-398 S342G/I384M): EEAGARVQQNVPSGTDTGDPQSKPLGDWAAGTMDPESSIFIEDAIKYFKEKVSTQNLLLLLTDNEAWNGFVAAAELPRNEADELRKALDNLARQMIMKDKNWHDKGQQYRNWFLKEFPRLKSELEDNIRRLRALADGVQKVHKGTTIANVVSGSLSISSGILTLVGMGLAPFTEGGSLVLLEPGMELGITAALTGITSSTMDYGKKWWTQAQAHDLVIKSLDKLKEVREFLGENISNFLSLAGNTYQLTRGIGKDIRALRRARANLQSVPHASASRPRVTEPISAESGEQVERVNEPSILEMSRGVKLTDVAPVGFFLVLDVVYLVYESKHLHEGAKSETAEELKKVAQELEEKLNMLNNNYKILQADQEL
# Test: Trypanosoma brucei brucei lysis assay using APOL1 recombinant protein (AlamarBlue viability)
# Format: cell-based
# Settings: Trypanosoma brucei brucei lysis, recombinant APOL1, AlamarBlue; read-out: Trypanosoma Assay (IC50)
# From the text: Trypanosoma brucei brucei is a blood stream parasite to which human, gorillas and baboon are immune due to the presence of the APOL1 protein in their HDL particles. The protein is uptaken by the parasite via the TbHpHb receptor located in its flagellar pocket and is bonded by the Hpr protein contained in the HDL particles which triggers the receptor endocytosis by the parasite.
# Following endocytosis, the formed vesicle containing the HDL particle matures from early to late endosome, and subsequently to lysosome. The concomitant pH change in the lumen of the vesicle triggers the insertion of the APOL1 protein into the membrane of the late endosome/lysosome and hereby triggers lysosomal membrane premeabilisation and as a further downstream event, trypanosome lysis. Trypanosoma brucei brucei is sensitive to lysis by all three APOL1 variants (G0, G1, and G2).
# The Trypanosoma brucei brucei lysis assay is a lysis assay of the parasite using recombinant APOL1 protein variant followed by a fluorescent detection method of viability by the addition of AlamarBlue reagent to the assay well, a general metabolic redox indicator (AlamarBlue assay).
# Briefly, the AlamarBlue active compound, the resazurin, a blue, water soluble, non-toxic and cell permeable molecule, which can be followed by absorbance, is reduced by various metabolic pathways into resorufin, a red compound which can be followed by either absorbance or fluorescence. The assay allows the calculation of the percent viability (percent of living Trypanosomes remaining in each well) at the end of a lysis relative to the untreated condition by interpolation of fluorescent values (FLU) on a standard curve with a known amount of seeded trypanosome/well.
# Trypanosoma brucei brucei (ATCC, Cat. No. PRA-382) • Lister 427 VSG 221 bloodstream form.
# Thaw/Expansion Media (ATCC Medium 2834 Modified HMI-9 Medium)
# Assay Media (No Phenol Red/No FBS): Make on Day of Use
# Hypoxanthine Stock (100×)-9 (10×)
# Equipment • El-Clip Tip pipette 12 channel adjustable 2-125 μL, Cat. No. 4672070BT • ThermoFisher MultiDrop 384, Cat. No. 5840300 • Multidrop • Agilent Bravo, Cat. No. G5409A • Bravo • SpectraMax M5
# Assay Ready Plates (ARPs) • ARPs comes in two formats: • […] final top concentration with a 2.5 fold dilution down. • […] final top concentration with a 3 fold dilution down. • Both have a 10 point Dose response. • 0.1% DMSO final in the Black Assay Plate. • Compounds are diluted 1000 fold in the Black Assay Plate. • Each plate is designed for 14 compounds in duplicate. • In the final Black Assay Plate:
# Trypanosoma brucei brucei Culture
# Step 2, Day 4 • Centrifuge at 800×g for 5 minutes at room temperature. • Resuspend in 1 mL media. • Make a 1:25 fold dilution (10 μL/240 μL media). • Count on a hemocytometer (after adding parasites). • Let sit for 1-2 minutes for the parasites to settle. • Count should be approximately 100 viable motile parasites/16 grid or approximately 25×10^6 parasites/flask. • Passage the parasites by adding 1×10^6 parasites/T75 flask in 20 mL media. • Passage the parasites by adding 2.33×10^6 parasites/T175 flask in 46.6 mL media. • For every T75 flask should make enough for approximately 1.5×384 well assay plates. • For every T175 flask should make enough for approximately 3.8×384 well assay plates.
# Step 3, Day 6 • Centrifuge at 800×g for 5 minutes. • Resuspend in 3 mL assay media (No phenol red, no FBS) per 75 starting flask. • Resuspend in 7 mL assay media (No phenol red, no FBS) per 175 flask • Make a 1:25 fold dilution. • Count by hemocytometer. • Every T75 flask set up should have approximately 75×10^6 parasites/flask (verify doubling time=8.7 hrs±1 hr). • Every T175 flask set up should have approximately 175×10^6 parasites/flask (verify doubling time=8.7 hrs±1 hr). • Require 46×10^6 parasites per 384 well plate (at 120,000 parasites per well). Protocol B […]
row,Compound,IC50 [nM]
1,NC(=O)[C@@H]1CCN(C(=O)[C@H]2C[C@H](c3c(-c4ccc(F)cc4)[nH]c4c(F)cc(F)cc43)C2)C1 [Compound 135],> 1000
2,O=C([C@H]1C[C@H](c2c(-c3ccc(F)cc3)[nH]c3c(F)cc(F)cc32)C1)N1CCOC(CO)C1 (some centres unmarked) [Compound 148],> 1000
3,CCN(C(=O)[C@H]1C[C@H](c2c(-c3ccc(F)cc3)[nH]c3c(F)cc(F)cc32)C1)C(C)CO (mixture of isomers) [Compound 111],250 to 1000
4,O=C([C@H]1C[C@H](c2c(-c3ccc(F)cc3)[nH]c3c(F)cc(F)cc32)C1)N(CCOCCO)C1CCC1 [Compound 121],> 1000
5,C[C@H]1CN(C(=O)[C@H]2C[C@H](c3c(-c4ccc(F)cc4)[nH]c4c(F)cc(F)cc43)C2)CC[C@@H]1O [Compound 116],> 1000
6,O=C([C@H]1C[C@H](c2c(-c3ccc(F)cc3)[nH]c3c(F)cc(F)cc32)C1)N1CCC2(COC2)C1 [Compound 103],> 1000
7,CN(CC(O)CO)C(=O)[C@H]1C[C@H](c2c(-c3ccc(F)cc3)[nH]c3c(F)cc(F)cc32)C1 (some centres unmarked) [Compound 158],250 to 1000
8,O=C([C@H]1C[C@H](c2c(-c3ccc(F)cc3)[nH]c3c(F)cc(F)cc32)C1)N1C2CCC(C2)C1CO (some centres unmarked) [Compound 97],> 1000
9,C[C@@H](O)[C@@H](CO)NC(=O)[C@H]1C[C@H](c2c(-c3ccc(F)cc3)[nH]c3c(F)cc(F)cc32)C1 [Compound 160],< 250
10,O=C([C@H]1C[C@H](c2c(-c3ccc(F)cc3)[nH]c3c(F)cc(F)cc32)C1)N1CCOCC1CCO (some centres unmarked) [Compound 113],> 1000
11,O=C([C@H]1C[C@H](c2c(-c3ccc(F)cc3)[nH]c3c(F)cc(F)cc32)C1)N(CCO)c1cnccn1 [Compound 132],> 1000
12,CC(C)N(CCO)C(=O)[C@H]1C[C@H](c2c(-c3ccc(F)cc3)[nH]c3c(F)cc(F)cc32)C1 [Compound 123],250 to 1000
13,CC(O)CNC(=O)[C@H]1C[C@H](c2c(-c3ccc(F)cc3)[nH]c3c(F)cc(F)cc32)C1 (some centres unmarked) [Compound 167],250 to 1000
14,O=C1C[C@@H](NC(=O)[C@H]2C[C@H](c3c(-c4ccc(F)cc4)[nH]c4c(F)cc(F)cc43)C2)C(=O)N1 [Compound 166],< 250
15,O=C([C@H]1C[C@H](c2c(-c3ccc(F)cc3)[nH]c3c(F)cc(F)cc32)C1)N1CCOC(O)C1 (some centres unmarked) [Compound 115],< 250
16,O=C([C@H]1C[C@H](c2c(-c3ccc(F)cc3)[nH]c3c(F)cc(F)cc32)C1)N1CCC[C@@H](O)C1 [Compound 149],< 250
17,O=C([C@H]1C[C@H](c2c(-c3ccc(F)cc3)[nH]c3c(F)cc(F)cc32)C1)N1CC2(CC(O)C2)C1 [Compound 137],> 1000
18,CN(C)C[C@@H]1CCN(C(=O)[C@H]2C[C@H](c3c(-c4ccc(F)cc4)[nH]c4c(F)cc(F)cc43)C2)C[C@H]1O [Compound 110],250 to 1000
19,O=C(NC1CC(O)C1)[C@H]1C[C@H](c2c(-c3ccc(F)cc3)[nH]c3c(F)cc(F)cc32)C1 (some centres unmarked) [Compound 5],250 to 1000
20,C[C@H](CO)N(C)C(=O)[C@H]1C[C@H](c2c(-c3ccc(F)cc3)[nH]c3c(F)cc(F)cc32)C1 [Compound 142],< 250
21,O=C([C@H]1C[C@H](c2c(-c3ccc(F)cc3)[nH]c3c(F)cc(F)cc32)C1)N1CC(OCC2CCCO2)C1 (some centres unmarked) [Compound 136],> 1000
22,NC(=O)[C@H]1CCCN1C(=O)[C@H]1C[C@H](c2c(-c3ccc(F)cc3)[nH]c3c(F)cc(F)cc32)C1 [Compound 153],< 250
23,O=C([C@H]1C[C@H](c2c(-c3ccc(F)cc3)[nH]c3c(F)cc(F)cc32)C1)N1CCCCC1CO (some centres unmarked) [Compound 145],250 to 1000
24,O=C([C@H]1C[C@H](c2c(-c3ccc(F)cc3)[nH]c3c(F)cc(F)cc32)C1)N(CCO)CCCO [Compound 117],250 to 1000
25,O=C([C@H]1C[C@H](c2c(-c3ccc(F)cc3)[nH]c3c(F)cc(F)cc32)C1)N1C[C@H]2C[C@@]2(CO)C1 [Compound 98],> 1000
26,CCN(CCO)C(=O)[C@H]1C[C@H](c2c(-c3ccc(F)cc3)[nH]c3c(F)cc(F)cc32)C1 [Compound 124],250 to 1000
